Measurements: ChEMBL document CHEMBL1201862, “PubChem BioAssay data set” (2004)
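These data come from cells grown in 96-well plates and exposed to compound for 48 hours at five concentrations. GI50: concentration for 50% inhibition of growth.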 The source made the active and inactive calls. No stated cut-off is given here; in the data, active = GI50 up to about 1.1 µM and inactive = higher.

Assays:
Test in all cases: NCI tumour cell line growth inhibition, 48 h
[1] = system: HT-29
[2] = system: SF-268
[3] = system: MOLT-4
[4] = system: M14
[5] = system: OVCAR-5
[6] = system: UACC-257
[7] = system: HCT-15
[8] = system: NCI-H522
[9] = system: RPMI-8226
[10] = system: 786-0
[11] = system: NCI-H226
[12] = system: OVCAR-4
[13] = system: LXFL 529
[14] = system: UO-31
[15] = system: SR

Compound	GI50 [1]	GI50 [2]	GI50 [3]	GI50 [4]	GI50 [5]	GI50 [6]	GI50 [7]	GI50 [8]	GI50 [9]	GI50 [10]	GI50 [11]	GI50 [12]	GI50 [13]	GI50 [14]	GI50 [15]
O=C(Cc1ccccc1)N/N=C(/c1nc2ccc([N+](=O)[O-])cc2nc1O)C(O)c1ccccc1Cl (stereo not drawn)	> 100 µM (inactive)	> 100 µM (inactive)	70 µM (inactive)	60.8 µM (inactive)	> 100 µM (inactive)	> 100 µM (inactive)	40.6 µM	6.28 µM (inactive)	> 100 µM (inactive)	> 100 µM (inactive)	> 100 µM (inactive)	> 100 µM (inactive)	69.7 µM (inactive)	> 100 µM (inactive)	> 100 µM (inactive)
N#CC1CC2(C1)OCCS2 (stereo not drawn)	> 100 µM (inactive)	> 100 µM (inactive)	> 100 µM (inactive)	> 100 µM (inactive)	> 100 µM (inactive)	> 100 µM (inactive)	> 100 µM	> 100 µM (inactive)	> 100 µM (inactive)	> 100 µM (inactive)	> 100 µM (inactive)	> 100 µM (inactive)	> 100 µM (inactive)	> 100 µM (inactive)	> 100 µM (inactive)
Cc1c(Cl)cccc1N1C(=O)C(Cl)=C(Cl)C1=O	> 100 µM (inactive)	> 100 µM (inactive)	17.1 µM (inactive)	> 100 µM (inactive)	> 100 µM (inactive)	> 100 µM (inactive)	> 76.9 µM	13.5 µM (inactive)	43 µM (inactive)	98.6 µM (inactive)	> 100 µM (inactive)	> 100 µM (inactive)	> 75.7 µM (inactive)	> 100 µM (inactive)	34.2 µM (inactive)
COc1ccc(/C(C#N)=C(/N)SCc2ccccc2Cl)cc1	17.5 µM (inactive)	16.4 µM (inactive)	19.1 µM (inactive)	14.2 µM (inactive)	18.2 µM (inactive)	16.7 µM (inactive)		14 µM (inactive)	22.8 µM (inactive)	16.1 µM (inactive)	16.4 µM (inactive)		14.4 µM (inactive)	> 10 µM (inactive)	25.2 µM (inactive)
CC(C)(O)[C@@H]1CC[C@@]2(C)CCCC(O)C2(O)C1 (stereo partly drawn)	> 100 µM (inactive)	> 100 µM (inactive)	> 100 µM (inactive)	> 100 µM (inactive)	> 100 µM (inactive)	> 100 µM (inactive)	> 100 µM	> 100 µM (inactive)	> 100 µM (inactive)	> 100 µM (inactive)	> 100 µM (inactive)	> 100 µM (inactive)	> 100 µM (inactive)	> 100 µM (inactive)	> 100 µM (inactive)
COc1cc(C=O)c(-c2cc3c(cc2C=O)OCO3)c(OC)c1OC	79.6 µM (inactive)	101 µM (inactive)	96.2 µM (inactive)		> 290 µM (inactive)	123 µM (inactive)	73.3 µM	41.8 µM (inactive)	96.6 µM (inactive)	84.9 µM (inactive)	93.1 µM (inactive)		78 µM (inactive)		93.1 µM (inactive)
C[C@@H]1C[C@@H]([C@H](O)CC2CC(=O)NC(=O)C2)C(=O)[C@@H](C)C1 [CYCLOHEXIMIDE]	0.0718 µM (active)	0.0438 µM (active)	< 0.0176 µM (active)	0.0532 µM (active)	0.141 µM (active)	0.0912 µM (active)	0.0433 µM	0.0395 µM (active)	0.0362 µM (active)	0.0372 µM (active)	0.219 µM (active)	0.0366 µM (active)	0.0187 µM (active)	0.0287 µM (active)	0.0416 µM (active)
COc1cc(C)c(CC/C(C)=C/Cc2cc(O)ccc2O)c(C)c1C [PANICEIN A HYDROQUINONE]	> 25 µM (inactive)	> 25 µM (inactive)	> 25 µM (inactive)	> 25 µM (inactive)			> 25 µM	> 25 µM (inactive)	> 25 µM (inactive)	> 25 µM (inactive)	> 25 µM (inactive)	> 25 µM (inactive)	> 25 µM (inactive)	> 25 µM (inactive)	> 25 µM (inactive)
